The text below walks through data of paper PMC1413570, “Testing Electrostatic Complementarity in Enzyme Catalysis: Hydrogen Bonding in the Ketosteroid Isomerase Oxyanion Hole” (PLoS Biology, 2006).

Data set [1] deals with pKSI^D40N (ketosteroid isomerase) (Pseudomonas putida, UniProt P07445, D34C/D40N). The data set can be described thus: biochemical. The class given is binding.
For data set [2], the target named is T1, tKSI^D40N (Comamonas testosteroni, UniProt P00947, D38N). Also noted: species or system Commamonas testosteroni. To be noted: for δ1, chemical shift of most downfield peak in complex / δ2, chemical shift of second downfield peak in complex: pH 7.2, −3 °C.
Data set [3] in a line: Determination of phenol pKa values (literature or spectral titration).
Data set [4] concerns the target tKSI^D40N (ketosteroid isomerase) (Comamonas testosteroni, UniProt P00947, D38N). The data set can be described thus: biochemical. Format: binding, Commamonas testosteroni.
Data set [5] has as its target T1, tKSI^D40N. To be noted: read-out: apparent affinity, previous assay; pH 7; cited from earlier work.
For data set [6] the following is noted: from literature; cited from earlier work.
A further data set has as its target pKSI^D40N (Pseudomonas putida, UniProt P07445, D34C/D40N). The class given is binding. To be noted: pH 7.2, 25 °C.
On the set-up of data set [7]: method as in earlier work. Conditions: cited from earlier work.
The target in a further data set is KSI. Also noted: method as in PMID 7918439. Conditions: less precise estimate; read-out: affinity of equilenin estimated by previous assays; cited from earlier work.
Data set [8] can be described thus: Enthalpies of ionization of phenols by titration with NaOH. The class given is physicochemical.
From the text: The enthalpy of ionization of HEPES, used to correct for proton transfer to buffer, is 5.02 kcal/mol [ [149]].
[9] abbreviates: solution with ionic strength 100 mM maintained with NaCl.
Setting [10] is: spectral titration, 25 °C, ionic strength 100 mM.
Where [11] appears, read: apparent affinity at pH 8 ([picture]), pH 8, errors in parenthesis are average deviations.
[12] abbreviates: Displacement assay, phenolate form.
Where [13] appears, read: pH 8, errors in parenthesis are average deviations, read-out: apparent affinity at pH 8 ([picture]).
Setting [14] is: Displacement assay, uncorrected for enzyme ionization enthalpy.

Like-named read-outs stand apart in the source and are kept apart here. Marks after values point to notes of the source that are not given here.

Chain of pKSI^D40N (P07445 whole entry D34C/D40N): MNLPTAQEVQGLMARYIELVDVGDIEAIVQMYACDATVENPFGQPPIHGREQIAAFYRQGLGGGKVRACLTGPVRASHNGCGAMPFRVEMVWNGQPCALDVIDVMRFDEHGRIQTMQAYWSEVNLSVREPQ
Chain of pKSI^D40N (ketosteroid isomerase) (P07445 whole entry D34C/D40N): as above
T1 sequence (P00947 whole entry D38N, looked up): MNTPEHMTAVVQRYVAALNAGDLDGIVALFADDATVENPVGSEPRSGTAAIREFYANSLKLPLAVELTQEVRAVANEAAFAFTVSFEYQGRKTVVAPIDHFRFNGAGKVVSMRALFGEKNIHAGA
Chain of tKSI^D40N (ketosteroid isomerase) (P00947 whole entry D38N): as the sequence (P00947 whole entry D38N, looked up) above

Compound `N#Cc1ccc(O)cc1` [Phenol 4-CN, 4-cyanophenol] came in with a Kd in data set [1] (Kd from fit of pH dependence of binding to Equation 4, phenol pKa fixed at 8.0, enzyme pKa 5.5) of 0.016 ± 0.002 µM. Moreover, the “δ1, chemical shift of most downfield peak in complex” value (“δ1, chemical shift” below) on tKSI^D40N [2] stood at 15.6 ppm.

One may read the pKa as the pH at which an ionisable group is half protonated. In the case of `Cc1cc(O)ccc1F` [Phenol 4-F-3-CH3, 4-Fluoro-3-methylphenol], the pKa in [3] (setting [9]) came to 9.8.

For `Oc1ccc(I)cc1` [Phenol 4-I], the “δ1, chemical shift” value at tKSI^D40N [2] was determined as 16.7 ppm.

With `Oc1ccc(Cl)cc1` [Phenol 4-Cl, 4-chlorophenol], the Kd in [4] was 40 ± 7 µM; at tKSI^D40N [5] it was 7.9 ± 1.3 µM.

Consider `Oc1ccc(F)c(F)c1F` [2,3,4-F3], for which the pKa in data set [3] (setting [10]) was 7.7^b.

In the case of `CC(C)c1cccc(O)c1` [Phenol 3-isopropyl, 3-isopropylphenol], the pKa in data set [3] (setting [9]) stood at 9.9.

For the compound `Oc1cccc(I)c1` [Phenol 3-I, 3-iodophenol], in data set [6], the pKa is reported as 9.2. Further, at tKSI^D40N [2], the “δ1, chemical shift” value came to 16.8 ppm and the “δ2, chemical shift of second downfield peak in complex” value (“δ2, chemical shift” for short) was determined as 15.9 ppm.

In data set [3] (setting [10]), `Oc1ccc(C(F)(F)F)cc1` [Phenol 4-CF3] returned a pKa of 8.9. In addition, on tKSI^D40N [2], the “δ1, chemical shift” value is given as 16.4 ppm and the “δ2, chemical shift” value was found to be 15.9 ppm.

As to `Oc1ccccc1` [Phenol, phenol], the Kd in [4] (setting [11]) was 410 µM; in data set [4] (apparent affinity, new assay, pH 7) it was 430 ± 80 µM; in [1] (setting [11]) it was 135 µM; at tKSI^D40N [5], 61 ± 10 µM. Moreover, the “∆G of binding” value at pKSI^D40N (setting [12]) is reported as -11.3 (0.1) kcal/mol. Further, the “∆Hion Lit value” in [7] is recorded as 6.1 (0.2).

`C[C@]12CCc3c(ccc4cc(O)ccc34)[C@@H]1CCC2=O` [equilenin] gave a pKa in data set [3] (solution of 100 mM ionic strength maintained with NaCl) of 9.7. Besides, the “chemical shift of the principal downfield peak upon binding” value on tKSI^D40N [2] (spectrum not shown) is 17.6 ppm. For the same compound, on KSI, the Kd was 0.0001 to 0.001 µM.

As for `Oc1cc(F)c(F)cc1F` [2,4,5-F3, 2,4,5-trifluorophenol], the pKa in data set [3] (setting [9]) was 7.7.

Turning to `CCc1cccc(O)c1` [Phenol 3-ethyl, 3-ethylphenol], the pKa in data set [6] is listed as 9.9.

Turning to `Oc1cccc(C(F)(F)F)c1` [Phenol 3-CF3], the pKa in data set [3] (setting [10]) is 8.7. Besides, at tKSI^D40N [2], the “δ1, chemical shift” value turned out to be 17.0 ppm and the “δ2, chemical shift” value stood at 16.1 ppm.

Consider `N#Cc1cccc(O)c1` [Phenol 3-CN], for which, on tKSI^D40N [2], the “δ1, chemical shift” value was determined as 16.4 ppm and the “δ2, chemical shift” value is given as 15.6 ppm.

Take `Oc1ccc(Cl)c(Cl)c1` [3,4-Cl2, 3,4-dichlorophenol]: on tKSI^D40N [2], the “δ1, chemical shift” value is 16.4 ppm and the “δ2, chemical shift” value is 15.6 ppm. The pKa in “physchem” is 8.5.

For `Oc1cccc(Br)c1` [Phenol 3-Br], on tKSI^D40N [2], the “δ1, chemical shift” value amounted to 17.0 ppm and the “δ2, chemical shift” value is recorded as 15.6 ppm.

Turning to `CC(=O)c1ccc(O)cc1` [Phenol 4-acetyl, 4-Acetylphenol], in data set [6], the pKa was 8.1. Moreover, on tKSI^D40N [2], the “δ1, chemical shift” value amounted to 16.0 ppm and the “δ2, chemical shift” value came out at 15.4 ppm.

In turn, `Oc1c(F)c(F)c(F)c(F)c1F` [pentafluorophenol] registered a pKa in the data set “physchem” of 5.7.

`Oc1cc(F)ccc1F` [2,5-F2]: in data set [3] (setting [10]), the pKa is 7.7^b.

Take `Oc1ccccc1F` [Phenol 2-F, 2-fluorophenol]: the pKa in data set [6] is listed as 8.8.

Turning to `Oc1cc(F)cc(C(F)(F)F)c1` [Phenol 3-F-5-CF3, 3-fluoro-5-(trifluoromethyl)phenol], the pKa in [3] (solution of ionic strength 100 mM maintained with NaCl) is 8.2. In addition, on tKSI^D40N [2], the “δ1, chemical shift” value is listed as 16.4 ppm and the “δ2, chemical shift” value is recorded as 15.6 ppm.

With `Cc1ccc(O)cc1` [Phenol 4-methyl, 4-methylphenol], in data set [6], the pKa was 10.2.

`Oc1cc(F)cc(F)c1F` [2,3,5-F3, 2,3,5-trifluorophenol] gave a pKa in data set [3] (setting [9]) of 7.1.

For the compound `O=[N+]([O-])c1cccc(O)c1` [Phenol 3-NO2], on tKSI^D40N [2], the “δ1, chemical shift” value worked out at 16.4 ppm and the “δ2, chemical shift” value is given as 15.5 ppm.

As to `Oc1cccc(F)c1F` [2,3-F2], the pKa in data set [3] (setting [10]) is 7.7^b.

In the case of `Oc1ccc(F)cc1F` [2,4-F2], the pKa in [3] (setting [10]) was 8.6^b.

For `Oc1ccc(F)cc1` [Phenol 4-F], the values for the Kd in data set [4] (setting [13]) and in data set [1] (setting [13]) were 320 µM and 133 µM, respectively. Also, the “∆Hion (heat of ionization)” value is 5.97 (0.03) in data set [8] (Ionic strength 0.0) and 6.21 (0.06) in data set [8] (Ionic strength 0.1). Also, the “∆G of binding” value on pKSI^D40N (setting [12]) is -11.34 (0.02) kcal/mol. In addition, at pKSI^D40N (setting [14]), the “∆Hrel (relative enthalpy of binding)” value is recorded as -9.8 (0.1) kcal/mol. Besides, the “∆Hion Lit value” in data set [7] is listed as 5.93 (0.05).

As for `O=[N+]([O-])c1ccc(O)cc1` [Phenol 4-NO2, 4-nitrophenol], in [1] (apparent affinity of the phenol for the enzyme (Equation 3), pH 6.9), the Kd came to 1.8 ± 0.2 µM. In addition, the Kd in [1] (pH-independent affinity of the phenolate form for the protonated enzyme (Equation 4), converted from apparent affinity at pH 6.9) was 0.026 ± 0.002 µM. On tKSI^D40N [2], the “δ1, chemical shift” value is recorded as 15.0 ppm and the “δ2, chemical shift” value turned out to be 14.8 ppm.

As to `Oc1ccc(F)c(F)c1` [3,4-F2], the Kd in data set [4] (setting [13]) is 69 µM; in [1] (setting [13]), 31 µM. Besides, the “∆Hion (heat of ionization)” value in data set [8] (Ionic strength 0.1) was 7.04 (0.06). For the same compound, the “∆G of binding” value at pKSI^D40N (setting [12]) is -11.14 (0.01) kcal/mol. At pKSI^D40N (setting [14]), the “∆Hrel (relative enthalpy of binding)” value is -8.53 (0.05) kcal/mol.

In the case of `O=[N+]([O-])c1ccc(O)cc1F` [Phenol 3-F-4-NO2, 3-fluoro-4-nitrophenol], on tKSI^D40N [2], the “δ1, chemical shift” value came out at 14.4 ppm and the “δ2, chemical shift” value was 14.3 ppm. The compound also gave a pKa in “physchem” of 6.1.

For `Oc1cccc(Cl)c1` [Phenol 3-Cl], on tKSI^D40N [2], the “δ1, chemical shift” value is given as 17.1 ppm and the “δ2, chemical shift” value is 15.6 ppm.

As for `Oc1cc(F)cc(F)c1` [3,5-F2], the Kd came to 20 µM in data set [4] (setting [13]) and 8.4 µM in data set [1] (setting [13]). Moreover, in [8] (Ionic strength 0.1), the “∆Hion (heat of ionization)” value was 5.73 (0.07). Besides, the “∆G of binding” value at pKSI^D40N (Direct Titration) is -11.23 (0.03) kcal/mol; at pKSI^D40N (setting [12]), -11.1 (0.2) kcal/mol. For the same compound, the entries for the “∆Hrel (relative enthalpy of binding)” value on pKSI^D40N (Direct Titration) and at pKSI^D40N (setting [14]) were -6.9 (0.1) kcal/mol and -6.7 (0.8) kcal/mol, respectively.

`O=[N+]([O-])c1cc(O)ccc1Cl` [Phenol 3-NO2-4-Cl] displayed a pKa in data set [3] (setting [10]) of 7.8. Moreover, on tKSI^D40N [2], the “δ1, chemical shift” value was 15.8 ppm and the “δ2, chemical shift” value was determined as 15.4 ppm.

`Oc1cc(Cl)cc(Cl)c1` [3,5-Cl2]: the pKa in data set [3] (setting [10]) is 8.1. Also, at tKSI^D40N [2], the “δ1, chemical shift” value turned out to be 16.6 ppm and the “δ2, chemical shift” value is on record as 14.8 ppm.

`Oc1cc(F)c(F)c(F)c1` [3,4,5-F3, 3,4,5-trifluorophenol]: the results for the Kd in data set [4] and in [1] (setting [11]) were 17 µM and 6.1 µM, respectively. Also, the pKa in data set [3] and in data set [3] (setting [9]) was 8.2 throughout. The “∆Hion (heat of ionization)” value in data set [8] (Ionic strength 0.1) is 5.62 (0.06). In addition, on tKSI^D40N [2], the “δ1, chemical shift” value worked out at 16.3 ppm. Further, the “δ2, chemical shift” value at tKSI^D40N [2] is reported as 14.9 ppm. Moreover, the “∆G of binding” value was -11.51 (0.04) kcal/mol on pKSI^D40N (Direct Titration) and -11.1 (0.1) kcal/mol on pKSI^D40N (setting [12]). Besides, the “∆Hrel (relative enthalpy of binding)” value at pKSI^D40N (Direct Titration) was -6.0 (0.1) kcal/mol; on pKSI^D40N (setting [14]) it was -5.8 (0.3) kcal/mol.

As to `Oc1cccc(F)c1` [Phenol 3-F, 3-fluorophenol], the Kd in data set [4] was determined as 110 µM; in data set [1] (setting [11]), 41 µM. Besides, the “∆Hion (heat of ionization)” value in data set [8] (Ionic strength 0.1) is on record as 6.29 (0.05). The “∆G of binding” value at pKSI^D40N (setting [12]) was -11.10 (0.05) kcal/mol.

On to `CC(C)c1ccc(O)cc1` [Phenol 4-isoproyl, 4-isopropylphenol], for which, in “physchem”, the pKa stood at 10.

In the case of `O=[N+]([O-])c1ccc(O)cc1C(F)(F)F` [Phenol 3-CF3-4-NO2], the pKa in [3] (setting [10]) was determined as 6.3. At tKSI^D40N [2], the “δ1, chemical shift” value is 14.9 ppm and the “δ2, chemical shift” value amounted to 14.5 ppm.
